Experimental findings from patent US9822128B1, “Substituted spirooxindoles” (KING SAUD UNIVERSITY, priority 2017, dated 2017) are described below.

For one assay, the system named is PC-3. Put plainly: MTT cytotoxicity assay, prostate carcinoma cells. The class given is cell-based, human. Particulars: for IC50: Homo sapiens, PC-3, MTT, 48 hrs incubation. The protocol:
(§1) The cytotoxic activity of the compounds was tested against different mammalian cancer cells, prostate carcinoma cells (PC-3), hepatocellular carcinoma (HepG2) and colon cancer cells (HCT-116) and against African green monkey kidney cell line (Vero-B). The cell lines were obtained from American Type Culture Collection (ATCC). The cells were cultivated at 37° C. and 10% CO2 in DMEM (Lonza, 12-604F) medium supplemented with 10% fetal bovine serum (FBS, Lonza, Cat. No. 14-801E), 100 IU/ml penicillin and 100 μg/ml streptomycin (Lonza, 17-602E). Cisplatin (cis-diamineplatinum (II) dichloride) was used as a positive control and was obtained from Sigma then dissolved in 0.9% saline then stored as 8 mM stock solution at −20° C. The synthesized compounds were solubilized in DMSO and stored at −20° C. 0.5% crystal violet was prepared in Methanol and was used to stain the viable cells (Feoktistova, Geserick et al. 2016). Crystal violet binds to proteins and DNA in the adherent and viable cells so the stain is an indicator for the viability of the treated cells. The viability of the cells were quantified by using MTT reagent (3-(4,5-dimethylthiazol-2-yl)-2,5-diphenyl tetrazolium bromide), which measure the activity of mitochondrial dehydrogenase in the viable cells (Slater, Sawyer et al. 1963, Mosmann 1983).
(§2) Cytotoxicity was further assayed as follows. The cells were seeded in 96-well plate as 5*10^4 cells/mL (100 μL/well). A serial dilutions of tested compounds or cisplatin (100, 30, 10, 3.3, 1.1 or 0.37 μM) was added after overnight incubation of the cells at 37° C. and 5% CO2. DMSO was used as a control (0.1%). The cells were incubated for 48 hrs. After that, 15 μl of MTT (5 mg/mL PBS) was added to each well and incubated for another 4 hours. The formazan crystals were solubilized by 100 μL acidified SDS solution (10% SDS/0.01 M HCl). The absorbance was measured after 14 hours of incubation at 37° C. and 5% CO2 at 570 nm by Biotech plate reader. Each experiment was repeated three times and standard deviation was calculated (±). IC50% was calculated as the concentration that cause 50% inhibition for cell growth. The growth of the cells were monitored and the images were acquired by Gx microscopes (GXMGXD202 Inverted Microscope) (10× Eyepiece) after staining with crystal violet.

For assay [1], the system named is HCT-116. Put plainly: MTT cytotoxicity assay, colon cancer cells. Particulars: for IC50: Homo sapiens, HCT-116, MTT, 48 hrs incubation. The class given is cell-based, human. The procedure:
as §1, §2

A further assay relates to HepG2. Put plainly: MTT cytotoxicity assay, hepatocellular carcinoma cells. Particulars: for IC50: Homo sapiens, HepG2, MTT, 48 hrs incubation. In kind it is cell-based, human. The procedure: as §1, §2
The next assay has as its system Vero-B. Put plainly: MTT cytotoxicity assay, normal kidney cell line. Particulars: Chlorocebus sabaeus, Vero B; Table 1; MTT, 48 hrs incubation; read-out: VERO-B (IC50% μM). The class given is cell-based, African green monkey. The protocol: as §1, §2
A general note: Tetrazolium dyes change colour on reduction, which living cells bring about.

Assay [2] relates to p53 in HCT-116 (wt p53) cells. Put plainly: p53 activation, p53 protein level by flow cytometry. The class given is cell-based, human. Particulars: for shift in fluorescence (p53 antibody): 48 hours, untreated 23%. The procedure: The determination of p53 protein level by flow cytometry was applied because it measures the level in a single cell and determines the heterogeneity of expression within a population of cells. HCT-116 (wt p53) cells were seeded at 5*10^4 cells/mL density in a 6-well plate (2 ml/well). The cells were treated with 1 or 2 μM of compound 4d for 48 hrs, and the cells were collected after trypsin enzyme treatment and washed two times with ice-cold 1×PBS. The cells were fixed with 4% paraformaldehyde for fixation and permeabilization, then washed one time with 1× ice-cold PBS and one time with PBS containing 2% FBS. Then an aliquot of the cells was incubated with an anti-p53 antibody for one hour, and then washed two times with PBS. After that, the same cells were stained with PI (propidium iodide). […] In order to confirm the effect of compound 4d on the activation of p53, we incubated the colon cancer cells with 2 μM of compound 4d, and after 24 hours, the cells were stained with the antibody against p53. […] See FIGS. 6B (1 μM treatment with compound 4d for 48 hours; 52.7% shift in fluorescence) and 6C (2 μM treatment with compound 4d for 48 hours; 60.1% shift in fluorescence) compared to FIG. 6A (untreated cancer cells; 23% shift in fluorescence).

The subject of a further assay is HCT-116 cells. Put plainly: Wound-healing assay. In kind it is cell-based, human. Particulars: HCT-116, 1 μM, images at 0, 4, 24 and 48 hours, vs DMSO. The protocol:
HCT-116 cells were seeded in 6 well plate as 10*10^4 cells per ml (2 ml in each well) and incubated overnight at 37° C. and 5% CO2. On the second day, a scratch was created in each well by using a sterile P200 tip, and then the medium was replaced with fresh medium containing either DMSO or 1 μM of compound 4d. Photomicrograph images were taken at different time points (0, 4, 24 and 48 hours) to monitor the wound closure. After that, the cells were washed two times with ice-cold 1×PBS and fixed with ice-cold methanol for 20 min at 4° C. The fixed cells were washed two times with 1×PBS and stained with 0.5% crystal violet for 30 min. The extra stain was washed off by dH2O until no color in the washing is observed. The images were captured by Gx microscopes (GXMGXD202 Inverted Microscope) (10× Eyepiece) after staining with crystal violet. The size of the wound was measured by using ImageJ 1.47v software. […] This confirms the ability of compound 4d to enhance tumor suppressor activities.

In assay [3] the test system is HCT-116. Put plainly: Cell cycle analysis (propidium iodide flow cytometry). Particulars: HCT-116, 2 μM, 24 hours. In kind it is cell-based, human. The procedure: The cells (HCT-116) were seeded 5*10^4 cells/mL in a 6-well plate (2 mL/well) and allowed to adhere overnight at 37° C. and 5% CO2. The cells were incubated with or without 2 μM of compound 4d for 24 hours. The cells were washed twice with ice-cold 1×PBS and collected after trypsinzation. The cell pellet was washed two times with ice-cold 1×PBS and fixed with ice-cold 70% ethanol overnight at −20° C. After that, the cells were washed once with ice-cold PBS and the second wash was done with ice-cold PBS-2% FBS. The cell pellet was re-suspended in 500 μL Propidium Iodide (PI)/RNase (BD Biosciences, BDB550825) staining solution for 15 min at room temperature. The samples were incubated for 15 min in the dark and analyzed within 1 hour by BD Accuri™ C6 Plus flow cytometer. […] The arrest of the cell cycle in subG1 indicates the induction of apoptosis.
For orientation: A flow cytometer gives signals particle by particle.

Where two headings read alike, the source gives them in different places.

For `O=C(/C=C/c1ccc(Cl)cc1Cl)[C@H]1[C@H](c2ccc(Cl)cc2Cl)[C@H]2CSCN2[C@]12C(=O)Nc1ccccc12` [Compound 4d, (3R,6′S,7′R,7a′S)-7′-(2,4-dichlorophenyl)-6′-((E)-3-(2,4-dichlorophenyl)acryloyl)-1′,6′,7′,7a′-tetrahydro-3′H-spiro[indoline-3,5′-pyrrolo[1,2-c]thiazol]-2-one], the IC50 turned out to be 1.8 ± 0.3 µM in the assay with PC-3 (read-out: PC-3 (IC50% μM)); 1.1 µg/mL with PC-3 (read-out: PC-3 (IC50% μg/ml)); 1.4 ± 0.6 µM in the assay on HCT-116 [1] (read-out: HCT-116 (IC50% μM)); 0.8 µg/mL with HCT-116 [1] (read-out: HCT-116 (IC50% μg/ml)); 0.85 ± 0.2 µM with HepG2 (read-out: HepG2 (IC50% μM)); 0.5 µg/mL in the assay with HepG2 (read-out: HepG2 (IC50% μg/ml)). For the same molecule, the IC50 in the assay with Vero-B amounted to 5 µM. In addition, the SI is 2.778 with PC-3 (Selectivity Index from IC50 normal (VERO-B) and IC50 cancer (PC-3)); 5.882 in the assay on HepG2 (Selectivity Index from IC50 normal (VERO-B) and IC50 cancer (HepG2)). Further, the “selectivity index to the cancer cells” value with HCT-116 [1] (broad spectrum, cancer cells) is given as “greater than 2”. Moreover, the “shift in fluorescence (p53 antibody)” value in assay [2] (HCT-116, 1 μM) came to 52.7%; in assay [2] (HCT-116, 2 μM) it was 60.1%. Moreover, in assay [2] (colon cancer cells, 2 μM, 24 hours), the “cell population positive for p53” value was “significant increase”. Further, in the assay with HCT-116 cells, the wound closure result is given as “inhibited wound closure”. Moreover, the “cells arrested in G2/M” value in the assay on HCT-116 [3] is “around 34.5%”. Moreover, the “cells arrested in subG1” value with HCT-116 [3] is reported as around 15.5%.
